Two sequences from publication PMC5056396, “Hexokinase I N-terminal based peptide prevents the VDAC1-SOD1 G93A interaction and re-establishes ALS cell viability” (Scientific Reports, 2016) can be followed below.

For one experiment, the system named is NSC34 cells. Nature of the experiment: Subcellular distribution by indirect immunofluorescence. The format is cell-based, mouse. The conditions noted are these: HA-tagged NHK1 expressed from plasmid with mtDsRED, transient transfection. The source says:
(§1) In order to analyze the effect of NHK1 peptide in our ALS-like in cellulo system, the subcellular distribution of NHK1 peptide was investigated. NSC34 cells were transiently transfected with a plasmid encoding for a HA-tagged NHK1 peptide and for a mitochondrial-targeted Red Fluorescent Protein (mtDsRED)[18]. […] Then, the NHK1 peptide, as well as the whole HK1 as control, was expressed in NSC34-SOD1G93A or SOD1WT to evaluate its ability to counteract the toxicity mediated by mutSOD1. Literature reports indicate that SOD1 mutants expression in NSC34 cell promote a significative loss of cell viability, accordingly with the specific mutation. […] Therefore, supplementation of NHK1 peptide (or HK1) to NSC34-SOD1G93A cells promotes a recovery of the cell viability.
Plasmids and cell transfection […]
NSC34 cells not transfected or transfected with 0,5 µg of pCMS-mtDsRED-NHK1-HA were fixed in 3.7% formaldehyde and permeabilized using 0.3% Triton X-100. […] Endogenous HK1 was detected in not transfected cells by incubating over-night cells with rabbit anti-HK1 antibody (1:100) (Abcam). NHK1-HA was detected in transfected cells by incubating over-night cells with rabbit anti-HA antibody (1:100) (Santa Cruz Biotechnology, Inc.). […]
examined by fluorescence microscopy. […]

Experiment [1] has as its system SOD1 G93A binding to intact mitochondria purified from NSC34 cells. Nature of the experiment: Mitochondrial binding assay of SOD1 G93A after pre-incubation with peptide. Details: species or system mouse. The conditions noted are these: scramble control. As to the method: The ability of NHK1 to inhibit SOD1 G93A from binding the mitochondrial surface was investigated using intact mitochondria purified from NSC34 cells. Mitochondria were incubated with SOD1 G93A, in the presence or absence of 60 μM NHK1 peptide. […] Following incubation with NHK1, a dramatic decrease of 85% SOD1 G93A bound to mitochondria was seen (Fig. 5D). Again, no effect was found by incubating mitochondria with the ScNHK1 peptide.
Intact mitochondria were purified from NSC34 cells by Mitochondrial isolation kit (Miltenyi Biotech), according with manufacturer’s instructions. Isolated, intact mitochondria, in the storage buffer provided, were quantified by Lowry method. Mitochondria were incubated with 2 μg of purified SOD1 WT or G93A for 1 h at RT, under constant shaking in storage buffer. Alternatively, a pre-incubation with 60 μM NHK1 peptide for 1 h, in the same condition, was performed. Mitochondrial pellet was collected by centrifugation for 2 min at 13000×g. Supernatants were collected, and mitochondrial pellets were lysed using 3% Triton X-100. Proteins in mitochondrial or supernatant fraction were detected by western blot and quantified as explained in Supplementary Information. At least, three independent experiments were performed.

In the next experiment the test system is NSC34-SOD1G93A cells. Nature of the experiment: Cell viability assay (MTT). The format is cell-based, mouse. Particulars: expression from transfected plasmid.
Description: as §1
24 h-induced NSC34-SOD1WT and NSC34-SOD1G93A cells seeded on 24-well plates were transfected using 0,25 μg of pEGFP-N1-HK1 or empty pEGFP-N1 or 0,5 μg of pMCS-mtDsRED-NHK1 or scramble or empty pCMS-mtDsRED. Cell viability was analyzed using 3-(4,5-dimethylthiazol-2-yl)-2,5-diphenyltetrazolium bromide (MTT)[47] (Sigma). A colorimetric assay was performed using the microplate reader Varioskan (Thermo Scientific). Reported data are representative for three sets of independent experiments, each performed in triplicate. Data were statistically analyzed using one-way ANOVA followed by Bonferroni post hoc test. […]

Regarding “IAAQLLAYYFT [NHK1, peptide corresponding to residues 2–12 (N-terminal region) of human HK1 protein (…)]”, in the experiment on NSC34 cells, the “subcellular localization” value is listed as “mainly co-localized with mtDsRED signal”.

Consider “FAQLTIALAYY [ScNHK1, scramble peptide (…) synthetized and used as control, reference compound]”, for which the “effect on SOD1 G93A bound to mitochondria” value in experiment [1] is on record as “no effect”. Moreover, the “effect on cell viability of NSC34-SOD1G93A” value in the experiment on NSC34-SOD1G93A cells is reported as “does not change the cell viability”.
